This assay addresses T1, OGDH (Rattus norvegicus, UniProt Q5XI78).
T1 sequence (Q5XI78 41-1023): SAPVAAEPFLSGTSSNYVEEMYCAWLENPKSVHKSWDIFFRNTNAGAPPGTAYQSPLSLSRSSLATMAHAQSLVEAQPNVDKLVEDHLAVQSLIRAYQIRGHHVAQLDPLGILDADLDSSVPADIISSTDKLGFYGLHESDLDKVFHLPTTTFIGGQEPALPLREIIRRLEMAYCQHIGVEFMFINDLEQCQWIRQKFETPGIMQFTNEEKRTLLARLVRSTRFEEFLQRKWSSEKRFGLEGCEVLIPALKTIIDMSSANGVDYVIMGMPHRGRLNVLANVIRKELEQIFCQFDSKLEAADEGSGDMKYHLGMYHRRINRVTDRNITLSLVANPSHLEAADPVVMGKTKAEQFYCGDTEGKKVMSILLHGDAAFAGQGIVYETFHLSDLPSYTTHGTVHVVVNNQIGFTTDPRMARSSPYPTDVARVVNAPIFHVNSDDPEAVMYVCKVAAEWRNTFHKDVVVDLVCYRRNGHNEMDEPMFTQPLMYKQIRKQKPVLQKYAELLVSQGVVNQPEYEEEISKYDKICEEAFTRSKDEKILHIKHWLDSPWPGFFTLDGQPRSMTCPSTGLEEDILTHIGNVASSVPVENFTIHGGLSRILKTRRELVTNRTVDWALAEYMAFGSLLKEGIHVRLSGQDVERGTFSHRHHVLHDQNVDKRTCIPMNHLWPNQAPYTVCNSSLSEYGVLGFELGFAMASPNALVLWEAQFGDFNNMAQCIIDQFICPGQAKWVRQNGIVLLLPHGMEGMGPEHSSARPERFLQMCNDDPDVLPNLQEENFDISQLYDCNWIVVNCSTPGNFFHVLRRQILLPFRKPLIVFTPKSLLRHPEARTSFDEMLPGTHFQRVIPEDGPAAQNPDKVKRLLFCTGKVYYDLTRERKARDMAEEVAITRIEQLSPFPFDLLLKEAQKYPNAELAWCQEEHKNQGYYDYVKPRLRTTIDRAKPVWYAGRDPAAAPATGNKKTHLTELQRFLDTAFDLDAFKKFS
T1 sequence (Q01205 69-454 partner): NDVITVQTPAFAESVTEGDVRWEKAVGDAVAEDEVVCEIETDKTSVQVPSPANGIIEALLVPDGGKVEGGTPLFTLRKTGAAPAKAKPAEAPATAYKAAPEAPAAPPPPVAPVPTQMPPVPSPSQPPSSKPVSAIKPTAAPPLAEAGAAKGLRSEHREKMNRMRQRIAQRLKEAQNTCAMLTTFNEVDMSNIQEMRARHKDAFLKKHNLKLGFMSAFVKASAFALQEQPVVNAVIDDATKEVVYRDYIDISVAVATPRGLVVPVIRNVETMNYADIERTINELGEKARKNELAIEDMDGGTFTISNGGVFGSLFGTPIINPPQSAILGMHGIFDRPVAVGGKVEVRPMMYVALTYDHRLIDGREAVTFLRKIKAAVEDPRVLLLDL
T1 sequence (Q6P6R2 36-509 partner): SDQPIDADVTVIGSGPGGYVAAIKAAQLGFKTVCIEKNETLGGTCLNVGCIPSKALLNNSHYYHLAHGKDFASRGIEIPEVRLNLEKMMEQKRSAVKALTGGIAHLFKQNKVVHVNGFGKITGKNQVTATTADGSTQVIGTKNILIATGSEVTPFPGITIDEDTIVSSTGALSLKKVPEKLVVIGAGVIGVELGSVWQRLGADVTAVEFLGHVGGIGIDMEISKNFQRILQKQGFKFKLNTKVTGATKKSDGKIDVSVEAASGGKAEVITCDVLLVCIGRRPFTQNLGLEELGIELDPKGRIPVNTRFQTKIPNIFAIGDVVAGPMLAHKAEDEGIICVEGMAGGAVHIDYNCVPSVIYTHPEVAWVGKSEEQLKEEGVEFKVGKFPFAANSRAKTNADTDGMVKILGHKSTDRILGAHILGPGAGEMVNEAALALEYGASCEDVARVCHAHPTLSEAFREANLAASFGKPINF
The experiment in a line: OGDH reaction (OG saturation) catalyzed by the enzyme preparation from rat heart. Format: biochemical. Also noted: the tissue fractions with the complexes enriched to a degree allowing for a robust detection of the enzymatic activities, have been used; from tissue; host or cells: rat heart. As for the experimental part: Reactions were started by addition of the enzyme preparations to the assay media. The amount of enzyme preparations (0.074 mg protein for the preparation from liver and 0.023 mg protein for the preparation from heart) were chosen to induce the lowest reliably measured reaction rate (ΔA340 = 0.001/min) at 0.01 mM OA without the phosphonates.
Reaction rates were calculated from linear parts of the product accumulation curves (up to 10 min, dependent on the reaction rate), excluding the initial region, where mixing the reagents and solubilization of the preparation affected the optical density.
The former equation describes one type of the active sites. […] The assumption was based on the presence of the two enzymes, OGDH and OADH, in the employed preparations.
The Km and Amax values obtained in independent experiments using the non-linear and linear regression analyses of the experimental data, were averaged and presented as Mean ± Standard Error of Mean.
The values of Ki were determined as the ratio of the corresponding Intercepts to the Slopes. In the two-site model, the Ki(1) and Ki(2) were calculated separately from the linear approximations of Km,1eff/Amax,1eff vs. [I] and Km,2eff/Amax,2eff vs. [I] dependences, respectively. […] The Ki values obtained from the non-linear and linear regression analyses of the experimental data were averaged and presented as Mean ± Standard Error of Mean.

Setting [1] is: OGDH reaction, heart, Eadie-Hofstee, read-out: Ki, EH.
[2] abbreviates: OGDH reaction, heart, Lineweaver-Burk, read-out: Ki, LB.
Setting [3] is: OGDH reaction, heart, Michaelis-Menten approximation, read-out: Ki, MM.
Where [4] appears, read: OGDH reaction, heart, average of MM, LB, EH, read-out: Ki, Average.
The mark [5] stands for this setting: [I] 10 µM, OGDH reaction, heart.
[6] abbreviates: [I] 50 µM, OGDH reaction, heart.
The mark [7] stands for this setting: [I] 200 µM, OGDH reaction, heart.
[8] abbreviates: [I] 1000 µM, OGDH reaction, heart.

Each structure is given as a SMILES string. Read-outs that look alike come from different tables or passages of the source.

Broadly, the Ki is a measure of affinity in units of concentration, obtained from inhibition or displacement.

As to `O=C(O)CCCC(=O)P(=O)(O)O` [GP, glutaryl phosphonate], the inhibitory constant (Ki) under setting [1] came out at 49 ± 8 µM, the Ki under setting [2] was found to be 12 ± 1 µM, the inhibition constant (Ki) under setting [3] amounted to 39 ± 2 µM and the inhibitory constant (Ki) under setting [4] turned out to be 33 ± 11 µM. In addition, the Amax reads like this: ([I] 2 µM, OGDH reaction, heart) 0.67 ± 0.02 µmol/min per mg of protein; under setting [5], 0.76 ± 0.02 µmol/min per mg of protein; under setting [6], 0.79 ± 0.03 µmol/min per mg of protein; under setting [7], 0.86 ± 0.05 µmol/min per mg of protein.
Take `O=C(O)CCCCC(=O)P(=O)(O)O` [AP, adipoyl phosphonate]: the inhibition constant (Ki) is 1760 ± 77 µM under setting [1], 2140 ± 517 µM under setting [2], 2490 ± 341 µM under setting [3] and 2130 ± 211 µM under setting [4]. For the same compound, the Amax by setting is: ([I] 0.5 µM, OGDH reaction, heart) 0.70 ± 0.02 µmol/min per mg of protein; ([I] 2 µM, OGDH reaction, heart) 0.72 ± 0.01 µmol/min per mg of protein; under setting [5], 0.62 ± 0.01 µmol/min per mg of protein; under setting [6], 0.67 ± 0.01 µmol/min per mg of protein; under setting [7], 0.70 ± 0.02 µmol/min per mg of protein; under setting [8], 0.63 ± 0.03 µmol/min per mg of protein. For the same compound, the Amax ([I] 5000 µM, OGDH reaction, heart) was 0.61 ± 0.04 µmol/min per mg of protein.
On to `O=C(O)CCC(=O)P(=O)(O)O` [SP, succinyl phosphonate], for which the Ki (Ki, Average, OGDH reaction, heart, average of MM, LB, EH) stood at 16 ± 2 µM; the affinity (Ki, LB, OGDH reaction, heart, Lineweaver-Burk), expressed as Ki, was 13 ± 2 µM; the inhibition constant (Ki) (Ki, MM, OGDH reaction, heart, Michaelis-Menten approximation) came out at 20 ± 1 µM; the Ki under setting [1] is 15 ± 1 µM; the Ki (rounded from Table 2 (heart and liver preparations), read-out: Ki as OGDH inhibitor (order of magnitude)) turned out to be 10 µM. For the same compound, the Amax is, setting by setting: under setting [5], 0.72 ± 0.01 µmol/min per mg of protein; under setting [6], 0.71 ± 0.02 µmol/min per mg of protein; under setting [7], 0.45 ± 0.11 µmol/min per mg of protein; under setting [8], 0.54 ± 0.07 µmol/min per mg of protein.
